Key:
cerebellar granule cells [1] = experiment: peroxynitrite-induced apoptosis, morphological studies, Pharmacological Test 2; type: cell-based, rat; conditions: for protection from apoptotic death: 100 µM, 30-min exposure to 10 µM peroxynitrite
cerebellar granule cells [2] = experiment: cellular ATP content by HPLC after exposure to peroxynitrite; type: cell-based, rat; conditions: pretreatment; exposure to peroxynitrite for 30 min, Figure 9
cerebellar granule cells [3] = experiment: lipid peroxidation (TBA assay) after exposure to peroxynitrite; type: cell-based, rat
cerebellar granule cells [4] = experiment: DNA fragmentation after exposure to peroxynitrite; type: cell-based, rat; conditions: peroxynitrite-treated cells
cerebellar granule cells [5] = experiment: DNA fragmentation analysis after exposure to NO donors; type: cell-based, rat; conditions: pre-treatment of NO-treated cells
cerebellar granule cells [6] = experiment: cell viability by trypan blue exclusion after exposure to NO donors; type: cell-based, rat; conditions: exposure to NO donors (100 µmol/L SNP or GSNO), Figure 2
cerebellar granule cells [7] = experiment: cell membrane fluidity by ESR spin labeling after exposure to peroxynitrite; type: cell-based, rat; conditions: Figure 8
[8] = unpublished data, contributed to Free Radic. Biol. Med.; cited from earlier work
cerebellar granule cells [9] = experiment: MTT assay (mitochondrial activity) after exposure to GSNO; type: cell-based, rat; conditions: Figure 3
acute toxicity (LD50) = conditions: rat, in vivo
cerebellar granule cells [10] = experiment: cell viability by MTT assay after exposure to peroxynitrite; type: cell-based, rat; conditions: concentration not given, Figure 6
cerebellar granule cells [11] = experiment: lipid peroxidation (TBA assay) after exposure to NO donors; type: cell-based, rat; conditions: 24-hr treatment with GSNO or SNP, Figure 4
cerebellar granule cells [12] = experiment: peroxynitrite-induced cell death (trypan blue exclusion and MTT assay), Pharmacological Test 1; type: cell-based, rat; conditions: 30-min exposure to 5-10 µmol/L peroxynitrite, assessed after 24-hr culture, Figure 5
neuronal membrane = conditions: oxidative stress-induced alteration; unpublished data, contributed to Free Radic. Biol. Med.; cited from earlier work
cerebellar granule cells [13] = experiment: NO donor-induced apoptosis, morphological studies; type: cell-based, rat; conditions: 25 µmol/L; 24-hour exposure to GSNO or SNP (100-250 µmol/L)

O=C1O[C@H]([C@@H](O)CO)C(O)=C1O [vitamin C]
protection from apoptotic death (cerebellar granule cells [1]): protected from death
cellular ATP content (cerebellar granule cells [2]): suppressed the decrease of ATP
formation of TBARS (lipid peroxidation) (cerebellar granule cells [3]; 100 µM): markedly inhibited the formation of TBARS
DNA fragmentation (ladder pattern) (cerebellar granule cells [4]; 100 µM): exhibited protective effects

Cc1c(C)c2c(c(C)c1OP(=O)(O)OC1=C(O)[C@@H]([C@@H](O)CO)OC1=O)CCC(C)(CCCC(C)CCCC(C)CCCC(C)C)O2.O=P(O)(O)O (mixture of isomers) [EPC-K1, L-ascorbic acid 2-[3,4-dihydro-2,5,7,8-tetramethyl-2-(4,8,12-trimethyltridecyl)-2H-1-benzopyran-6-yl-hydrogen phosphate] phosphate salt]
DNA fragmentation (ladder pattern) (cerebellar granule cells [5]): prevented DNA from fragmentation
protection from apoptotic death (cerebellar granule cells [1]): protected from death
protective action against ONOO^--induced apoptosis (comparison) (cerebellar granule cells [1]; overall comparison in Pharmacological Test 2): more effective than vitamin C or Trolox
cell viability (trypan blue exclusion) (cerebellar granule cells [6]): effectively protected the cells from death
solubility in water (solubility in water): soluble in water
cell membrane fluidity (order parameter) (cerebellar granule cells [7]; 50 µM): prevented the change in cell membrane fluidity
scavenging of peroxynitrite [8]: effective scavenger of peroxynitrite
protection of ability of cells to reduce MTT (mitochondrial enzymes) (cerebellar granule cells [9]; 8-hr exposure to 100 µmol/L GSNO): exhibited no dear protective effects
further dysfunction of mitochondrial enzymes (MTT) (cerebellar granule cells [9]; after exposure to 100 µmol/L GSNO): prevented mitochondrial enzymes from falling into further dysfunction
LD50 (acute toxicity (LD50); iv): > 100 mg/kg
LD50 (acute toxicity (LD50); po): > 5000 mg/kg
cell viability (MTT assay) (cerebellar granule cells [10]): effectively protected the cells from death
lipid peroxidation (formation of TBARS) (cerebellar granule cells [11]): effectively inhibited lipid peroxidation
cellular ATP content (cerebellar granule cells [2]): suppressed the decrease of ATP
peroxynitrite induced cell death (cerebellar granule cells [12]): effectively prevented cell death
formation of TBARS (lipid peroxidation) (cerebellar granule cells [3]; 50 µM, Figure 7): markedly suppressed
neuronal membrane fluidity (neuronal membrane): protects neuronal membrane fluidity from oxidative stress-induced alteration
protection from apoptotic cell death (cerebellar granule cells [13]): protected the cells from death
DNA fragmentation (ladder pattern) (cerebellar granule cells [4]; 50 µM): effectively prevented DNA from fragmentation

Cc1c(C)c2c(c(C)c1O)CCC(C)(C(=O)O)O2 (stereo not shown) [Trolox, 6-Hydroxy-2,5,7,8-tetramethylchroman-2-carboxylic acid]
protection from apoptotic death (cerebellar granule cells [1]): protected from death
cell membrane fluidity (order parameter) (cerebellar granule cells [7]; 100 µM): did not show significant protective effect
cellular ATP content (cerebellar granule cells [2]): suppressed the decrease of ATP
formation of TBARS (lipid peroxidation) (cerebellar granule cells [3]; 100 µM): markedly inhibited the formation of TBARS
DNA fragmentation (ladder pattern) (cerebellar granule cells [4]; 100 µM): exhibited protective effects

From patent publication EP1053749A1, “PREVENTIVES AND REMEDIES FOR NEURON DIGENERATION-ASSOCIATED DISEASEAS” (priority 1998, dated 1999)
